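Exposure lasted 48 hours, with cells grown in 96-well plates and compounds tested at five concentrations. GI50 is the concentration that inhibits growth by half.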 Activity calls are given as the source filed them. Cut-off read from the data, not from the text of the source: active = GI50 up to about 1.1 µM and inactive = higher.
Experiments:
Assay in all cases: inhibition of tumour cell growth, NCI panel, 48 h
U-251 = tested on: U-251
OVCAR-4 = tested on: OVCAR-4
NCI/ADR-RES = tested on: NCI/ADR-RES
UO-31 = tested on: UO-31
EKVX = tested on: EKVX
ACHN = tested on: ACHN
MDA-N = tested on: MDA-N
COLO 205 = tested on: COLO 205
SNB-75 = tested on: SNB-75
SK-MEL-2 = tested on: SK-MEL-2
OVCAR-5 = tested on: OVCAR-5
OVCAR-8 = tested on: OVCAR-8
HCT-15 = tested on: HCT-15
A498 = tested on: A498
PC-3 = tested on: PC-3
HCC 2998 = tested on: HCC 2998
UACC-62 = tested on: UACC-62
K562 = tested on: K562
KM12 = tested on: KM12
NCI-H460 = tested on: NCI-H460
M14 = tested on: M14
BT-549 = tested on: BT-549
SF-539 = tested on: SF-539
NCI-H226 = tested on: NCI-H226
786-0 = tested on: 786-0
SK-OV-3 = tested on: SK-OV-3
SF-268 = tested on: SF-268
RPMI-8226 = tested on: RPMI-8226
HL-60 = tested on: HL-60
NCI-H522 = tested on: NCI-H522
SNB-19 = tested on: SNB-19
NCI-H23 = tested on: NCI-H23
TK-10 = tested on: TK-10
CAKI-1 = tested on: CAKI-1
SK-MEL-28 = tested on: SK-MEL-28
HT-29 = tested on: HT-29
MDA-MB-435 = tested on: MDA-MB-435
DU-145 = tested on: DU-145
RXF 393 = tested on: RXF 393
SR = tested on: SR
Malme-3M = tested on: Malme-3M
A549 = tested on: A549
Hs-578T = tested on: Hs-578T
SW-620 = tested on: SW-620
LOX IMVI = tested on: LOX IMVI
SF-295 = tested on: SF-295
SK-MEL-5 = tested on: SK-MEL-5
OVCAR-3 = tested on: OVCAR-3
HCT-116 = tested on: HCT-116
SN12C = tested on: SN12C
MCF7 = tested on: MCF7
MOLT-4 = tested on: MOLT-4
CCRF-CEM = tested on: CCRF-CEM
IGROV-1 = tested on: IGROV-1
HOP-62 = tested on: HOP-62
UACC-257 = tested on: UACC-257
T47D = tested on: T47D
MDA-MB-231 = tested on: MDA-MB-231

C/C(=N\N=C(/S)N(C)C)c1cccnn1
GI50 (U-251): 977 nM (active) | GI50 (OVCAR-4): 608 nM (active) | GI50 (NCI/ADR-RES): 521 nM (active) | GI50 (UO-31): 564 nM (active) | GI50 (EKVX): 551 nM (active) | GI50 (ACHN): 79.6 nM (active) | GI50 (MDA-N): 752 nM (active) | GI50 (COLO 205): 468 nM (active) | GI50 (SNB-75): 2030 nM (inactive) | GI50 (SK-MEL-2): 7660 nM (inactive) | GI50 (OVCAR-5): 1060 nM (active) | GI50 (OVCAR-8): 526 nM (active) | GI50 (HCT-15): 468 nM | GI50 (A498): 1220 nM (inactive) | GI50 (PC-3): 385 nM (active) | GI50 (HCC 2998): 7460 nM (inactive) | GI50 (UACC-62): 486 nM (active) | GI50 (K562): 794 nM (active) | GI50 (KM12): 2480 nM (inactive) | GI50 (NCI-H460): 394 nM (active) | GI50 (M14): 594 nM (active) | GI50 (BT-549): 869 nM (active) | GI50 (SF-539): 513 nM (active) | GI50 (NCI-H226): 849 nM (active) | GI50 (786-0): 486 nM (active) | GI50 (SK-OV-3): 1260 nM (inactive) | GI50 (SF-268): 650 nM (active) | GI50 (RPMI-8226): 466 nM (active) | GI50 (HL-60): 365 nM (active) | GI50 (NCI-H522): 740 nM (active) | GI50 (SNB-19): 1460 nM (inactive) | GI50 (NCI-H23): 1130 nM (inactive) | GI50 (TK-10): 4050 nM (inactive) | GI50 (CAKI-1): 853 nM (active) | GI50 (SK-MEL-28): 1290 nM (inactive) | GI50 (HT-29): 569 nM (active) | GI50 (MDA-MB-435): 1420 nM (inactive) | GI50 (DU-145): 889 nM (active) | GI50 (RXF 393): 488 nM (active) | GI50 (SR): 293 nM (active) | GI50 (Malme-3M): 760 nM (active) | GI50 (A549): 832 nM (active) | GI50 (Hs-578T): > 66400 nM (inactive) | GI50 (SW-620): 612 nM (active) | GI50 (LOX IMVI): 495 nM (active) | GI50 (SF-295): 879 nM (active) | GI50 (SK-MEL-5): 486 nM (active) | GI50 (OVCAR-3): 424 nM (active) | GI50 (HCT-116): 369 nM (active) | GI50 (SN12C): 1100 nM (active) | GI50 (MCF7): 726 nM (active) | GI50 (MOLT-4): 188 nM (active) | GI50 (CCRF-CEM): 275 nM (active) | GI50 (IGROV-1): 689 nM (active) | GI50 (HOP-62): 1050 nM (active) | GI50 (UACC-257): 438 nM (active) | GI50 (T47D): 916 nM (active) | GI50 (MDA-MB-231): 745 nM (active)

From ChEMBL document CHEMBL1201862, “PubChem BioAssay data set” (2004)
